Paper PMC11354720, “Assessing the Efficacy of Protease Inactivation for the Preservation of Bioactive Amphibian Skin Peptides” (International Journal of Molecular Sciences, 2024)
Where two headings read alike, the source gives them in different places. Where a SMILES comes first, the peptide text is derived from it. Bridges are numbered along the chain shown (N, C = ends). Where no end group is shown, it is not given here.

Test system: proteases in Pelophylax esculentus skin secretion
Format: in vitro ADME
Details: for Proteoforms, %: sum of all proteolytic forms; for Proteoforms, % / Intact, % / Oxidized, %: LC-HRMS; for Intact, %: one frog per sample; for Efficiency of the reagent in deactivating proteases in amphibian skin secretions: comparison of HCl 1%, CH3OH, HCOOH 1%, PMSF 0.1 and 1.0 mM by preservation of nine intact peptides; for Oxidized, %: Met oxidized to methionine sulfoxide
Experimental: The inhibitory capacity of methanol and hydrochloric and formic acids, as well as PMSF at the minimum and maximum concentrations traditionally used in proteomics (0.1–1.0 mM), was compared via mass spectrometric monitoring of intact and proteolytic forms of nine peptides in five samples of Pelophylax esculentus secretions (samples 1–5).
Table 2 presents quantitative data for each of the nine peptides in Table 1, showing the percentage ratio of the intact (original) form of the peptide, the oxidized form (in the presence of methionine in the sequence), and the resulting proteolytic forms: products of the action of the remaining non-deactivated proteases. The full list of the detected proteolytic forms is included into the supporting material. The presence of one or another proteolytic form for each peptide in each of the five samples was determined by observing the coincidence of their exact experimental mass with the calculated one (within 0.5 ppm according to the mass spectra), as well as the coincidence of their sequences (tandem mass spectra data).
When calculating the data in Table 2, the total amount of intensities of all its formed forms in the mass spectra was taken as 100% for each peptide. To calculate the content in each of the samples of the intact, oxidized (if any), or proteolytic form of each of the nine peptides, the sum of the intensities of the chromatographic peaks of its multicharged ions, exactly corresponding to the values of the polyprotonated molecules of each of the forms, was used. The line “Proteoforms, %” took into account the sum of all proteolytic forms of a particular peptide for each of the five samples. The values of the intensities of each of the forms (intact, oxidized, and proteolytic) obtained in this way were summed up and, in relation to their resulting sum, the percentage content of each of the three forms in Table 2 was calculated for each of the five samples with different reagents.
The skin secretions of five sexually mature female specimens of the same size of Pelophylax esculentus, caught within the Moscow city limits, were obtained via mild electro-stimulation of the skin glands using a laboratory electro-stimulator [15, 51]. The “milking” parameters were as follows: signal frequency 50 Hz, pulse duration 3 ms, voltage 12 V, total stimulation time 40 s. The secretion was washed off with deionized water into separate containers, to which the following reagents were immediately added individually: —HCl to final concentration 1% (sample 1); —CH3OH (sample 2); —HCOOH to final concentration 1% (sample 3); —0.1 mM PMSF (sample 4 in DMSO); —1.0 mM PMSF (sample 5 in DMSO). All samples were centrifuged for 15 min at 3 000 rpm, filtered through removable membrane filters (PTFE 0.45 μm), and lyophilized. The storage temperature was −26 °C. All five individuals were immediately returned to their place of capture after the procedure.
Mass spectra were obtained on an Orbitrap ID-X high-resolution mass spectrometer (Thermo Scientific, Waltham, MA, USA) coupled to an LC-30 Nexera liquid chromatograph (Shimadzu, Kyoto, Japan) in LC-HRMS mode. An HPLC system consisted of two LC-30AD chromatographic pumps, a DGU-5A vacuum degasser, a SIL-30AC autosampler, an STO-20A column thermostat, and a CBM-20A system controller. The components of the secretions were separated on an XDB-C18 column (Agilent, Santa Clara, CA, USA) with a length of 100 mm and phase particle size of 1.8 μm. Gradient chromatography was performed using the following solutions: A—0.1% formic acid solution in deionized water (Milli-Q, Millipore, Molsheim, France); B—0.1% formic acid solution in acetonitrile containing 2% deionized water. All lyophilized samples were dissolved in phase B prior to the analysis. Injection volume was set to 0.1 µL. […]

[1] = sample 1: HCl final concentration 1%, all forms = 100%
[2] = sample 1: aqueous P. esculentus skin secretion, HCl added to final concentration 1%, sum of intensities of all forms of the peptide = 100%
[3] = sample 2: CH3OH, all forms = 100%
[4] = sample 2: aqueous P. esculentus skin secretion with CH3OH added, all forms = 100%
[5] = sample 3: HCOOH final concentration 1%, all forms = 100%
[6] = sample 3: aqueous P. esculentus skin secretion, HCOOH added to final concentration 1%, all forms = 100%
[7] = sample 4: PMSF 0.1 mM (in DMSO), all forms = 100%
[8] = sample 4: aqueous P. esculentus skin secretion, PMSF 0.1 mM (in DMSO), all forms = 100%
[9] = sample 5: PMSF 1.0 mM (in DMSO), all forms = 100%
[10] = sample 5: aqueous P. esculentus skin secretion, PMSF 1.0 mM (in DMSO), all forms = 100%

Row | Compound | Proteoforms, % [1] | Intact, % [2] [%] | Proteoforms, % [3] | Intact, % [4] [%] | Proteoforms, % [5] [%] | Intact, % [6] [%] | Proteoforms, % [7] | Intact, % [8] [%] | Proteoforms, % [9] | Intact, % [10] [%] | Efficiency of the reagent in deactivating proteases in amphibian skin secretions | Oxidized, % [1] [%] | Oxidized, % [7] [%]
1 | GXLDSLKNLAKNAAQILLNKASCKLSGQC-OH (disulfide) [Brev 2Rd, Brevinin 2Rd, natural disulfide skin peptide of Pelophylax esculentus, brevinin 2 family, 29 aa] | 0.39% | 99.61 | did not degrade | 100 | 2.23 | 97.77 | 98.45% | 1.55 | 79.16% | 20.84 |  |  | 
2 | CC[C@H](C)[C@H](NC(=O)[C@H](CC(N)=O)NC(=O)[C@@H](NC(=O)[C@H](C)N)C(C)C)C(=O)N1CCC[C@H]1C(=O)N[C@@H](Cc1ccccc1)C(=O)N[C@@H](CCCCN)C(=O)N[C@H](C(=O)N[C@@H](CCCCN)C(=O)N[C@@H](Cc1ccccc1)C(=O)N[C@@H](CCCNC(=N)N)C(=O)N[C@H]1CSSC[C@@H](C(=O)O)NC(=O)[C@H](Cc2ccccc2)NC(=O)[C@H](C)NC(=O)[C@H](C)NC(=O)[C@H](CCCCN)NC1=O)C(C)C [Ranat 2R, Ranatuerin 2R] (H-AVNIPFKVKFRCKAAFC-OH; disulfide 12-17) | 14.79% | 85.21 | proteolytic fragments were not recorded | 100 | 34.99 | 65.01 | proteolytic fragments were not recorded |  | proteolytic fragments were not recorded | 100 |  |  | 
3 | GXLSTLKNVAKTAGKGALQSLLNAASCKLSGQC-OH (disulfide) [Brev 2L, Brevinin 2L, natural disulfide skin peptide of Pelophylax esculentus, brevinin 2 family, 33 aa] | 1.21% | 98.79 | 4.66% | 95.34 | 4.74 | 95.26 | 99.64% | 0.36 | 80.51% | 19.49 |  |  | 
4 | O=S(=O)(F)Cc1ccccc1 [PMSF, phenylmethylsulfonyl fluoride, reference compound] |  |  |  |  |  |  |  |  |  |  | ineffective |  | 
5 | FFPAFLKVAAKVVPSXXCSITKKC-OH (disulfide) [Brev 1LE, Brevinin 1LE, natural disulfide skin peptide of Pelophylax esculentus, brevinin 1 family, 24 aa] | not a single proteolytic fragment was formed | 100 | not a single proteolytic fragment was formed | 100 | 1.63 | 98.37 | 92.73% | 7.27 | 89.74% | 10.26 |  |  | 
6 | CO [Methanol, reference compound] |  |  |  |  |  |  |  |  |  |  | most efficient |  | 
7 | CC[C@H](C)[C@H](NC(=O)[C@@H](N)C(C)C)C(=O)N1CCC[C@H]1C(=O)N[C@@H](Cc1ccccc1)C(=O)N[C@H](C(=O)N[C@@H](C)C(=O)N[C@@H](CO)C(=O)N[C@H](C(=O)N[C@@H](C)C(=O)N[C@@H](C)C(=O)N[C@@H](CCC(=O)O)C(=O)N[C@@H](CCSC)C(=O)N[C@@H](CCSC)C(=O)N[C@@H](CCC(N)=O)C(=O)N[C@@H](Cc1c[nH]cn1)C(=O)N[C@H](C(=O)N[C@@H](Cc1ccc(O)cc1)C(=O)N[C@H]1CSSC[C@@H](C(=O)O)NC(=O)[C@H](CCCNC(=N)N)NC(=O)[C@H](CCCNC(=N)N)NC(=O)[C@H](CO)NC(=O)[C@H](C)NC(=O)[C@H](C)NC1=O)C(C)C)C(C)C)C(C)C [Brev 1Ra, Brevinin 1Ra] (H-VIPFVASVAAEMMQHVYCAASRRC-OH; disulfide 18-24) | 0.75% | 93.51 | 0.60% | 98.27 | 0.30 | 99.51 |  | 77.80 | 0.53% | 99.47 |  |  | 
8 | GXFSKXAGKKXKNLXISGXKSVGKEVGMDVVRTGIDIAGCKIKGEC-OH (disulfide) [Escul 1R, Esculentin 1R, natural disulfide skin peptide of Pelophylax esculentus, esculentin 1 family, 46 aa] | 27.69% | 64.86 | 22.15% | 77.85 | 15.59 | 84.41 | 97.33% | 2.42 | 99.26% | 0.74 |  | 7.45 | 0.25
9 | GXLDSLKNFAKDAAGILLKKASCKLSGQC-OH (disulfide) [Brev 2Ra, Brevinin 2Ra, natural disulfide skin peptide of Pelophylax esculentus, brevinin 2 family, 29 aa] | 1.02% | 98.98 | did not degrade | 100 | 1.30 | 98.70 | 88.21% | 11.80 | 14.01% | 85.99 |  |  | 
10 | GXWNTXKATGKSA ASNVAVTLLDKAKCK(LV)GEC-OH (disulfide) [Brev 2La, Brevinin 2La, natural disulfide skin peptide of Pelophylax esculentus, brevinin 2 family, 33 aa] | 69.02% | 30.98 | not observed at all | 100 | 4.98 | 95.02 |  |  | not observed at all |  |  |  | 
11 | GIFSKLGRKKIKNLLISGLKNVGKEVGMDVVRTGIDIAGCKIKGEC (disulfide 40-46) [Escul 1, Esculentin 1] | 51.77% | 38.61 | 20.01% | 79.99 | 16.99 | 72.22 | 94.40% | 3.32 | 91.90% | 8.10 |  |  | 
